ChEMBL document CHEMBL3600382, “A-ring substituted 17β-arylsulfonamides of 17β-aminoestra-1,3,5(10)-trien-3-ol as highly potent reversible inhibitors of steroid sulfatase” (Bioorg Med Chem, 2015)

System: A549
Test: Cytotoxicity against human A549 cells
Type: functional
Details: not given

SMILES | GI50 [nM]
C[C@]12CC[C@@H]3c4ccc(O)cc4CC[C@H]3[C@@H]1CC[C@@H]2NS(=O)(=O)c1cccc(Br)c1 | 1000

System: SF-268
Test: Cytotoxicity against human SF268 cells
Type: functional
Details: not given

SMILES | GI50 [nM]
C[C@]12CC[C@@H]3c4ccc(O)cc4CC[C@H]3[C@@H]1CC[C@@H]2NS(=O)(=O)c1cccc(Br)c1 | 1000

System: MDA-MB-468
Test: Cytotoxicity against human MDA-MB-468 cells
Type: functional
Details: not given

SMILES | GI50 [nM]
C[C@]12CC[C@@H]3c4ccc(O)cc4CC[C@H]3[C@@H]1CC[C@@H]2NS(=O)(=O)c1cccc(Br)c1 | 2400

System: SNB-75
Test: Cytotoxicity against human SNB75 cells
Type: functional
Details: not given

SMILES | GI50 [nM]
C[C@]12CC[C@@H]3c4ccc(O)cc4CC[C@H]3[C@@H]1CC[C@@H]2NS(=O)(=O)c1cccc(Br)c1 | 1000

System: BT-549
Test: Cytotoxicity against human BT549 cells
Type: functional
Details: not given

SMILES | GI50 [µM]
C[C@]12CC[C@@H]3c4ccc(O)cc4CC[C@H]3[C@@H]1CC[C@@H]2NS(=O)(=O)c1cccc(Br)c1 | 3.1

System: T47D
Test: Cytotoxicity against human T47D cells
Type: functional
Details: not given

SMILES | GI50 [µM]
C[C@]12CC[C@@H]3c4ccc(O)cc4CC[C@H]3[C@@H]1CC[C@@H]2NS(=O)(=O)c1cccc(Br)c1 | 5

System: UACC-257
Test: Cytotoxicity against human UACC257 cells
Type: functional
Details: not given

SMILES | GI50 [nM]
C[C@]12CC[C@@H]3c4ccc(O)cc4CC[C@H]3[C@@H]1CC[C@@H]2NS(=O)(=O)c1cccc(Br)c1 | 1000

System: PC-3
Test: Cytotoxicity against human PC3 cells
Type: functional
Details: not given

SMILES | GI50 [nM]
C[C@]12CC[C@@H]3c4ccc(O)cc4CC[C@H]3[C@@H]1CC[C@@H]2NS(=O)(=O)c1cccc(Br)c1 | 1000

System: CCRF-CEM
Test: Cytotoxicity against human CCRF-CEM cells
Type: functional
Details: not given

SMILES | GI50 [nM]
C[C@]12CC[C@@H]3c4ccc(O)cc4CC[C@H]3[C@@H]1CC[C@@H]2NS(=O)(=O)c1cccc(Br)c1 | 1000

System: SR
Test: Cytotoxicity against human SR cells
Type: functional
Details: not given

SMILES | GI50 [nM]
C[C@]12CC[C@@H]3c4ccc(O)cc4CC[C@H]3[C@@H]1CC[C@@H]2NS(=O)(=O)c1cccc(Br)c1 | 1000

System: SW-620
Test: Cytotoxicity against human SW620 cells
Type: functional
Details: not given

SMILES | GI50 [nM]
C[C@]12CC[C@@H]3c4ccc(O)cc4CC[C@H]3[C@@H]1CC[C@@H]2NS(=O)(=O)c1cccc(Br)c1 | 1000

System: RPMI-8226
Test: Cytotoxicity against human RPMI8226 cells
Type: functional
Details: not given

SMILES | GI50 [nM]
C[C@]12CC[C@@H]3c4ccc(O)cc4CC[C@H]3[C@@H]1CC[C@@H]2NS(=O)(=O)c1cccc(Br)c1 | 1000

System: KM12
Test: Cytotoxicity against human KM12 cells
Type: functional
Details: not given

SMILES | GI50 [nM]
C[C@]12CC[C@@H]3c4ccc(O)cc4CC[C@H]3[C@@H]1CC[C@@H]2NS(=O)(=O)c1cccc(Br)c1 | 1000

System: COLO 205
Test: Cytotoxicity against human COLO205 cells
Type: functional
Details: not given

SMILES | GI50 [nM]
C[C@]12CC[C@@H]3c4ccc(O)cc4CC[C@H]3[C@@H]1CC[C@@H]2NS(=O)(=O)c1cccc(Br)c1 | 1000

System: M14
Test: Cytotoxicity against human M14 cells
Type: functional
Details: not given

SMILES | GI50 [nM]
C[C@]12CC[C@@H]3c4ccc(O)cc4CC[C@H]3[C@@H]1CC[C@@H]2NS(=O)(=O)c1cccc(Br)c1 | 1000

System: SK-MEL-2
Test: Cytotoxicity against human SK-MEL-2 cells
Type: functional
Details: not given

SMILES | GI50 [nM]
C[C@]12CC[C@@H]3c4ccc(O)cc4CC[C@H]3[C@@H]1CC[C@@H]2NS(=O)(=O)c1cccc(Br)c1 | 1000

System: U-251
Test: Cytotoxicity against human U251 cells
Type: functional
Details: not given

SMILES | GI50 [nM]
C[C@]12CC[C@@H]3c4ccc(O)cc4CC[C@H]3[C@@H]1CC[C@@H]2NS(=O)(=O)c1cccc(Br)c1 | 1000

System: OVCAR-5
Test: Cytotoxicity against human OVCAR5 cells
Type: functional
Details: not given

SMILES | GI50 [nM]
C[C@]12CC[C@@H]3c4ccc(O)cc4CC[C@H]3[C@@H]1CC[C@@H]2NS(=O)(=O)c1cccc(Br)c1 | 1000

System: SK-MEL-5
Test: Cytotoxicity against human SK-MEL-5 cells
Type: functional
Details: not given

SMILES | GI50 [nM]
C[C@]12CC[C@@H]3c4ccc(O)cc4CC[C@H]3[C@@H]1CC[C@@H]2NS(=O)(=O)c1cccc(Br)c1 | 1000

System: HCC 2998
Test: Cytotoxicity against human HCC2998 cells
Type: functional
Details: not given

SMILES | GI50 [nM]
C[C@]12CC[C@@H]3c4ccc(O)cc4CC[C@H]3[C@@H]1CC[C@@H]2NS(=O)(=O)c1cccc(Br)c1 | 1000

System: SN12C
Test: Cytotoxicity against human SN12C cells
Type: functional
Details: not given

SMILES | GI50 [nM]
C[C@]12CC[C@@H]3c4ccc(O)cc4CC[C@H]3[C@@H]1CC[C@@H]2NS(=O)(=O)c1cccc(Br)c1 | 1000

System: NCI-H23
Test: Cytotoxicity against human NCI-H23 cells
Type: functional
Details: not given

SMILES | GI50 [nM]
C[C@]12CC[C@@H]3c4ccc(O)cc4CC[C@H]3[C@@H]1CC[C@@H]2NS(=O)(=O)c1cccc(Br)c1 | 1000

System: NCI-H460
Test: Cytotoxicity against human NCI-H460 cells
Type: functional
Details: not given

SMILES | GI50 [nM]
C[C@]12CC[C@@H]3c4ccc(O)cc4CC[C@H]3[C@@H]1CC[C@@H]2NS(=O)(=O)c1cccc(Br)c1 | 1000

System: MOLT-4
Test: Cytotoxicity against human MOLT4 cells
Type: functional
Details: not given

SMILES | GI50 [nM]
C[C@]12CC[C@@H]3c4ccc(O)cc4CC[C@H]3[C@@H]1CC[C@@H]2NS(=O)(=O)c1cccc(Br)c1 | 1000

System: not listed separately
Test: Cytotoxicity against human EKVX cells
Type: functional
Details: not given

SMILES | GI50 [nM]
C[C@]12CC[C@@H]3c4ccc(O)cc4CC[C@H]3[C@@H]1CC[C@@H]2NS(=O)(=O)c1cccc(Br)c1 | 1000

System: not listed separately
Test: Cytotoxicity against human NCI-ADR-RES cells
Type: functional
Details: not given

SMILES | GI50 [nM]
C[C@]12CC[C@@H]3c4ccc(O)cc4CC[C@H]3[C@@H]1CC[C@@H]2NS(=O)(=O)c1cccc(Br)c1 | 1000

System: 786-0
Test: Cytotoxicity against human 786-0 cells
Type: functional
Details: not given

SMILES | GI50 [nM]
C[C@]12CC[C@@H]3c4ccc(O)cc4CC[C@H]3[C@@H]1CC[C@@H]2NS(=O)(=O)c1cccc(Br)c1 | 1000

System: SF-295
Test: Cytotoxicity against human SF295 cells
Type: functional
Details: not given

SMILES | GI50 [nM]
C[C@]12CC[C@@H]3c4ccc(O)cc4CC[C@H]3[C@@H]1CC[C@@H]2NS(=O)(=O)c1cccc(Br)c1 | 1000

System: MDA-MB-435
Test: Cytotoxicity against human MDA-MB-435 cells
Type: functional
Details: not given

SMILES | GI50 [nM]
C[C@]12CC[C@@H]3c4ccc(O)cc4CC[C@H]3[C@@H]1CC[C@@H]2NS(=O)(=O)c1cccc(Br)c1 | 1000

System: NCI-H226
Test: Cytotoxicity against human NCI-H226 cells
Type: functional
Details: not given

SMILES | GI50 [nM]
C[C@]12CC[C@@H]3c4ccc(O)cc4CC[C@H]3[C@@H]1CC[C@@H]2NS(=O)(=O)c1cccc(Br)c1 | 1000

System: A498
Test: Cytotoxicity against human A498 cells
Type: functional
Details: not given

SMILES | GI50 [nM]
C[C@]12CC[C@@H]3c4ccc(O)cc4CC[C@H]3[C@@H]1CC[C@@H]2NS(=O)(=O)c1cccc(Br)c1 | 1000

System: IGROV-1
Test: Cytotoxicity against human IGROV1 cells
Type: functional
Details: not given

SMILES | GI50 [nM]
C[C@]12CC[C@@H]3c4ccc(O)cc4CC[C@H]3[C@@H]1CC[C@@H]2NS(=O)(=O)c1cccc(Br)c1 | 1000

System: OVCAR-8
Test: Cytotoxicity against human OVCAR8 cells
Type: functional
Details: not given

SMILES | GI50 [nM]
C[C@]12CC[C@@H]3c4ccc(O)cc4CC[C@H]3[C@@H]1CC[C@@H]2NS(=O)(=O)c1cccc(Br)c1 | 1000

System: OVCAR-3
Test: Cytotoxicity against human OVCAR3 cells
Type: functional
Details: not given

SMILES | GI50 [nM]
C[C@]12CC[C@@H]3c4ccc(O)cc4CC[C@H]3[C@@H]1CC[C@@H]2NS(=O)(=O)c1cccc(Br)c1 | 1000

System: not listed separately
Test: Cytotoxicity against human Hs578T cells
Type: functional
Details: Hs-578T

SMILES | GI50 [µM]
C[C@]12CC[C@@H]3c4ccc(O)cc4CC[C@H]3[C@@H]1CC[C@@H]2NS(=O)(=O)c1cccc(Br)c1 | 4

System: LOX IMVI
Test: Cytotoxicity against human LOXIMVI cells
Type: functional
Details: not given

SMILES | GI50 [nM]
C[C@]12CC[C@@H]3c4ccc(O)cc4CC[C@H]3[C@@H]1CC[C@@H]2NS(=O)(=O)c1cccc(Br)c1 | 1000

System: HOP-92
Test: Cytotoxicity against human HOP92 cells
Type: functional
Details: not given

SMILES | GI50 [nM]
C[C@]12CC[C@@H]3c4ccc(O)cc4CC[C@H]3[C@@H]1CC[C@@H]2NS(=O)(=O)c1cccc(Br)c1 | 1000

System: SF-539
Test: Cytotoxicity against human SF539 cells
Type: functional
Details: not given

SMILES | GI50 [nM]
C[C@]12CC[C@@H]3c4ccc(O)cc4CC[C@H]3[C@@H]1CC[C@@H]2NS(=O)(=O)c1cccc(Br)c1 | 1000

System: TK-10
Test: Cytotoxicity against human TK10 cells
Type: functional
Details: not given

SMILES | GI50 [nM]
C[C@]12CC[C@@H]3c4ccc(O)cc4CC[C@H]3[C@@H]1CC[C@@H]2NS(=O)(=O)c1cccc(Br)c1 | 1000

System: MCF7
Test: Cytotoxicity against human MCF7 cells
Type: functional
Details: not given

SMILES | GI50 [µM]
C[C@]12CC[C@@H]3c4ccc(O)cc4CC[C@H]3[C@@H]1CC[C@@H]2NS(=O)(=O)c1cccc(Br)c1 | 3.7

System: HL-60(TB)
Test: Cytotoxicity against human HL-60(TB) cells
Type: functional
Details: not given

SMILES | GI50 [nM]
C[C@]12CC[C@@H]3c4ccc(O)cc4CC[C@H]3[C@@H]1CC[C@@H]2NS(=O)(=O)c1cccc(Br)c1 | 1000

System: MDA-MB-231
Test: Cytotoxicity against human MDA-MB-231 cells
Type: functional
Details: not given

SMILES | GI50 [µM]
C[C@]12CC[C@@H]3c4ccc(O)cc4CC[C@H]3[C@@H]1CC[C@@H]2NS(=O)(=O)c1cccc(Br)c1 | 3.9

System: CAKI-1
Test: Cytotoxicity against human Caki1 cells
Type: functional
Details: not given

SMILES | GI50 [nM]
C[C@]12CC[C@@H]3c4ccc(O)cc4CC[C@H]3[C@@H]1CC[C@@H]2NS(=O)(=O)c1cccc(Br)c1 | 1000

System: RXF 393
Test: Cytotoxicity against human RXF393 cells
Type: functional
Details: not given

SMILES | GI50 [nM]
C[C@]12CC[C@@H]3c4ccc(O)cc4CC[C@H]3[C@@H]1CC[C@@H]2NS(=O)(=O)c1cccc(Br)c1 | 1000

System: ACHN
Test: Cytotoxicity against human ACHN cells
Type: functional
Details: not given

SMILES | GI50 [nM]
C[C@]12CC[C@@H]3c4ccc(O)cc4CC[C@H]3[C@@H]1CC[C@@H]2NS(=O)(=O)c1cccc(Br)c1 | 1000

System: SK-OV-3
Test: Cytotoxicity against human SKOV3 cells
Type: functional
Details: not given

SMILES | GI50 [nM]
C[C@]12CC[C@@H]3c4ccc(O)cc4CC[C@H]3[C@@H]1CC[C@@H]2NS(=O)(=O)c1cccc(Br)c1 | 1000

System: UACC-62
Test: Cytotoxicity against human UACC62 cells
Type: functional
Details: not given

SMILES | GI50 [nM]
C[C@]12CC[C@@H]3c4ccc(O)cc4CC[C@H]3[C@@H]1CC[C@@H]2NS(=O)(=O)c1cccc(Br)c1 | 1000

System: HT-29
Test: Cytotoxicity against human HT-29 cells
Type: functional
Details: not given

SMILES | GI50 [nM]
C[C@]12CC[C@@H]3c4ccc(O)cc4CC[C@H]3[C@@H]1CC[C@@H]2NS(=O)(=O)c1cccc(Br)c1 | 1000
